Earlier results in patent publication US12644083B2, “Dual circulation microphysiological system” (CN Bio Innovations Limited, priority 2019, dated 2026).

Tested on: primary human hepatocytes
Details: for rate of metabolism (in words): general statement: considered to be slowly metabolised; for test phase required to give measurable changes (metabolism): single loop 3D liver scaffold system

CC(C)N(CCC(C(N)=O)(c1ccccc1)c1ccccn1)C(C)C (stereo not shown) [disopyramide]
rate of metabolism (in words): slowly metabolised
test phase required to give measurable changes (metabolism): 5 days

CC(C)(C)NC[C@H](O)COc1nsnc1N1CCOCC1 [timolol]
rate of metabolism (in words): slowly metabolised
test phase required to give measurable changes (metabolism): 5 days
